# “And” between values parts separate entries of the source, which are not always exact repeats. Equal entries are not always repeated.
# Target: T1, PCSK9 (Homo sapiens, UniProt Q8NBP7)
# T1 construct: endogenous in cells; host or cells: HepG2 (ATCC HB-8065)
# Test: ELISA of secreted (extracellular, medium) PCSK9 in HepG2 cells
# Format: cell-based
# Conditions: for Activity at 1 μM (% of remaining PCSK9): 1 μM compound; for Activity at 1 μM (% of remaining PCSK9) / Activity at 10 μM (% of remaining PCSK9): HepG2 cells, DMSO = 100%; for Activity at 10 μM (% of remaining PCSK9): 10 μM compound; for IC50: dose-response curves, extracellular PCSK9, cultured HepG2 cells (FIG. 4)
# Description: The human hepatoma cell line, HepG2, was cultured and maintained in low glucose Dulbecco's modified Eagle's medium (DMEM) supplemented with 10% fetal bovine serum (FBS) and 1% penicillin, streptomycin solution. (ATCC HB-8065, American Type Culture Collection, Manassas, Va.) The medium was further supplemented with 1% each of nonessential amino acids (NEAA), sodium pyruvate and L-glutamine.
# Freshly cultured HepG2 cells were harvested from vacuum gas plasma-treated T75 cell culture flasks and plated onto vacuum gas plasma-treated clear 12 or 96 well plates (Fisher Scientific, Waltham, Mass. catalog nos. 353072 and 353043, respectively) at 70% confluent in 1000 μl/well or 200 μl/well of growth medium respectively. Cell plates were incubated overnight at 37° C. and 5% CO2 prior to compound treatment. For screening experiments, compounds at an initial concentration of 20 mM in 100% DMSO were diluted to different concentrations in growth medium.
# For the generation of dose-response curves, compounds at an initial concentration of 20 mM in 100% DMSO were diluted to 30 μM in growth medium. The 30 μM solutions were then serially diluted 10-fold to achieve final concentration of 30 μM, 3 μM, 0.3 μM, 0.03 μM, and 0.003 μM in assay medium. Growth medium was aspirated from the plated cells and medium containing compound was added to the appropriate well. Cells were allowed to incubate for 24 h or 48 h at 37° C. and 5% CO2. Medium was collected from cells and centrifuged at 14,000 rpm for five min. The upper 50% of spun medium was collected and frozen for later analysis. The remaining cells were washed twice with 1000 μl/well or 200 μl/well cold phosphate buffered saline (PBS) at pH 7.4 and placed on ice. Cells were treated with 100 μl/well or 60 μl/well of lysis buffer comprised of 50 mM Tris, pH 8; 1% NP-40; 150 mM NaCl; 1 mM EDTA (purchased from Cell Signaling Technology, Inc., Danvers, Mass., catalog no. 9803) containing 1 mM phenylmethane sulfonyl fluoride (PMSF) and Roche protease inhibitor cocktail (available from Sigma-Aldrich, St. Louis, Mo.). Cells were allowed to incubate in lysis buffer on ice for 30 min. Cells were then collected and frozen overnight. Cells were centrifuged the next day at 14,000 rpm for 15 min. The supernatant was collected and analyzed for total protein or PCSK9 concentration.
# Inhibition of secreted PCSK9 was measured in human hepatocellular carcinoma (HepG2) cells using a PCSK9 Quantikine®-brand ELISA kit purchased from R&D Systems, a wholly owned subsidiary of Bio-Techne Corporation, Minneapolis, Minn. (“Human Proprotein Convertase 9/PCSK9 Quantikine® ELISA Kit,” catalog #DPC900). The protocol provided in the kit was followed. Briefly, PCSK9 standards were prepared according to the instructions provided with the kit at final concentrations of 40 ng/mL, 20 ng/mL, 10 ng/mL, 5 ng/mL, 2.5 ng/mL, 1.25 ng/mL, 0.625 ng/mL and 0 ng/mL. The ELISA was conducted with the provided capture antibody-coated 96-well plate. Assay diluent was added to all relevant wells at a volume of 100 μL. 50 μL of sample (medium or cell lysate) or PCSK9 standard (in duplicate) was then added to the appropriate well. The plate was allowed to incubate for 2 h at room temperature. All wells were aspirated and washed four times with 300 μl of wash buffer. After washing, 200 μL of anti-PCSK9-HRP conjugate was added to all wells and the plate was allowed to incubate at room temperature for 2 h. After incubation all wells were aspirated and washed again four times with 300 μL of washing buffer.
# After washing was completed, 200 μL of freshly prepared colorimetric reagent was added to all wells and the plate was incubated at room temperature in the dark for 30 min. After this final incubation a stop solution of 1N sulfuric acid was added to all wells, at which point absorbance was measured using a Tecan Infinite M1000 microplate reader at a wavelength of 450 nm (background absorbance was corrected by subtracting the absorbance measured at 540 nm). […]
# T1 sequence (Q8NBP7 153-692): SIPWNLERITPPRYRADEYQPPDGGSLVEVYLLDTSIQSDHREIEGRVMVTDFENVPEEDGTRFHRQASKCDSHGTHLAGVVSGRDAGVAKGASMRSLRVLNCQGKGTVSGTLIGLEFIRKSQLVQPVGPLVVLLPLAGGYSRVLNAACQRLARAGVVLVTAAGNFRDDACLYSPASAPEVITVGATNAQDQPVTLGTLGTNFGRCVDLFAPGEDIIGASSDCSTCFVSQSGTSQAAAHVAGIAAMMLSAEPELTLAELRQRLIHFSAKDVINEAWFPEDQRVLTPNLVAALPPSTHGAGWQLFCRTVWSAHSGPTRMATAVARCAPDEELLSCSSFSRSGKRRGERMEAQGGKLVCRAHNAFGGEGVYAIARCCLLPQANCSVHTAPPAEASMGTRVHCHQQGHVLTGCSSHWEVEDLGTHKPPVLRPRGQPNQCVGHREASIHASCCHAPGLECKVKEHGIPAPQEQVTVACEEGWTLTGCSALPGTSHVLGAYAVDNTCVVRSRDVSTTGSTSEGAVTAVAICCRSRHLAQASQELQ
Activity at 1 μM (% of remaining PCSK9),Activity at 10 μM (% of remaining PCSK9),IC50 [nM],Structure (SMILES)
62%,48%,,Fc1ccc2nc(Cc3c[nH]c4c(F)cccc34)n(CCc3ccccc3)c2c1 [HX179]
86%,89%,,Fc1ccc2nc(Cc3c[nH]c4c(F)cccc34)n(Cc3cccnc3)c2c1 [HX182]
21%,20%,,Cn1c(C(=O)c2c[nH]c3c(F)cccc23)nc2ccc(F)cc21 [HX261]
59% and 50%,17% and 13%,44,Fc1ccc2[nH]c(Cc3c[nH]c4c(F)cccc34)cc2c1 [compound 9577]
25%,15%,13,O=C(c1cc2cc(F)ccc2[nH]1)c1c[nH]c2c(F)cccc12 [HX240]
30%,20%,,O=C(c1nc2ccccc2[nH]1)c1c[nH]c2ccccc12 [HX262]
84%,73%,,CC(C)(C)Cn1c(Cc2c[nH]c3c(F)cccc23)nc2ccc(F)cc21 [HX186]
45%,25%,,[2H]C([2H])(c1nc2cc(F)ccc2[nH]1)c1c[nH]c2c(F)cccc12 [HX212]
70%,27%,,OCCn1c(Cc2c[nH]c3c(F)cccc23)nc2ccc(F)cc21 [HX183]
65%,42%,,CC(C)Cn1c(Cc2c[nH]c3c(F)cccc23)nc2ccc(F)cc21 [HX185]
27%,21%,,O=C(c1nc2ccccc2[nH]1)c1c[nH]c2c(F)cccc12 [MF025]
75%,31%,,Fc1ccc2nc(Cc3c[nH]c4c(F)cccc34)n(Cc3ccccc3)c2c1 [HX178]
46% and 40%,,,Fc1ccc2[nH]c(Cc3c[nH]c4c(F)cccc34)nc2c1 [HX81]
28%,13%,,O=C(c1cc2cc(F)ccc2[nH]1)c1c[nH]c2ccccc12 [HX259]
34%,10%,,Cn1c(Cc2c[nH]c3c(F)cccc23)nc2ccc(F)cc21 [HX184]
60%,33%,,Fc1ccc2nc(Cc3c[nH]c4c(F)cccc34)n(Cc3ccncc3)c2c1 [HX181]
28%,26%,0.5,O=C(c1nc2ccc(F)cc2[nH]1)c1c[nH]c2c(F)cccc12 [HX235]
88% and 69%,54% and 51%,,"COc1ccc2cc3[n+](cc2c1OC)CCc1cc2c(cc1-3)OCO2 [BBR, berberine, reference compound]"
20%,14%,,O=C(c1cc2ccccc2[nH]1)c1c[nH]c2c(F)cccc12 [HX258]
25%,13%,,O=C(c1cc2ccccc2[nH]1)c1c[nH]c2ccccc12 [HX257]

# From patent publication US11427569B2, “Benzoimidazole indolyl methanes and methods of using them to inhibit PCKS9 and PCKS9-mediated ailments” (Wisconsin Alumni Research Foundation, priority 2019, dated 2022)
